Data from US6737383B1, “Herbicidal oxadiazolidines” (priority 1999, dated 2004).

What was measured:
corn = experiment: Test B pre/postemergence corn; assay type: in vivo, Zea mays
Method in brief: (§1)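 Test chemicals in a non-phytotoxic solvent mixture with surfactant were sprayed preemergence onto planted seeds and postemergence onto plants 2 to 18 cm tall (1- to 4-leaf stage). After twelve to sixteen days in a greenhouse, injury was visually rated against untreated controls from 0 (no effect) to 10 (complete control).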

rape = experiment: Test B pre/postemergence rape; assay type: in vivo, Brassica napus
Method in brief: as §1

sugar beet = experiment: Test B pre/postemergence sugar beet; assay type: in vivo, Beta vulgaris
Method in brief: as §1

duck salad = experiment: Test B flood test duck salad; assay type: in vivo, Heteranthera limosa
Method in brief: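 Read-out is a visual response score from 0 (no effect) to 10 (complete control), assigned by comparison with untreated controls. Treatment was applied at the 2-leaf stage, and plants stayed in the greenhouse for twelve to sixteen days before scoring.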

winter wheat [1] = experiment: Test E winter wheat; assay type: in vivo, Triticum aestivum; conditions: Postemergence
Method in brief: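 Compounds formulated in non-phytotoxic solvent mixture with surfactant; for postemergence, sprayed on plants at 1- to 4-leaf stage grown in 60:40 sandy loam/greenhouse potting mix. Kept in greenhouse ~21 to 28 days, then visually rated against untreated controls.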

blackgrass = experiment: Test E blackgrass; assay type: in vivo, Alopecurus myosuroides; conditions: Preemergence
green foxtail = experiment: Test E green foxtail; assay type: in vivo, Setaria viridis; conditions: Preemergence
Italian ryegrass = experiment: Test E Italian ryegrass; assay type: in vivo, Lolium multiflorum; conditions: Preemergence
winter wheat [2] = experiment: Test E winter wheat; assay type: in vivo, Triticum aestivum; conditions: Preemergence
wild oat = experiment: Test E wild oat; assay type: in vivo, Avena fatua; conditions: Preemergence
winter barley = experiment: Test E winter barley; assay type: in vivo, Hordeum vulgare; conditions: Preemergence
[3] = Postemergence, Rate 125 g/ha, scale 0 to 10, 0 is no effect, 10 is complete control
[4] = Preemergence, Rate 62 g/ha, scale of 0 to 10 where 0 is no effect and 10 is complete control
[5] = Preemergence, Rate 250 g/ha, scale of 0 to 10 where 0 is no effect and 10 is complete control
[6] = Preemergence, Rate 500 g/ha, scale of 0 to 10 where 0 is no effect and 10 is complete control
[7] = Rate 62 g/ha, Postemergence, scale of 0 to 10 where 0 is no effect and 10 is complete control
[8] = Rate 500 g/ha, Postemergence, scale 0 to 10, 0 no effect, 10 complete control
[9] = Rate 62 g/ha, headed Pre-emergence (flood test species), scale 0 to 10 (0 no effect, 10 complete control)
[10] = Rate 125 g/ha, Pre-emergence, flood test species, scale 0 to 10 where 0 is no effect and 10 is complete control
[11] = Rate 250 g/ha, Pre-emergence, flood-test species, scale 0 to 10, 0 is no effect, 10 is complete control
[12] = Rate 500 g/ha, Pre-emergence, flood test species, scale 0 to 10 (0 no effect, 10 complete control)
[13] = Rate 250 g/ha, 0 to 100 scale, 0 is no effect, 100 is complete control
[14] = Rate 500 g/ha, 0 to 100 scale, 0 is no effect, 100 is complete control
[15] = Rate 500 g/ha, 0 to 100 scale (0 no effect, 100 complete control)
[16] = Rate 1000 g/ha, 0 to 100 scale, 0 no effect, 100 complete control
[17] = Rate 250 g/ha, 0 to 100 scale, 0 no effect, 100 complete control
[18] = Rate 125 g/ha, Postemergence, scale of 0 to 10 where 0 is no effect and 10 is complete control
[19] = Rate 125 g/ha, Preemergence, scale of 0 to 10 where 0 is no effect and 10 is complete control
[20] = Rate 250 g/ha, Postemergence, scale of 0 to 10 where 0 is no effect and 10 is complete control
[21] = Rate 125 g/ha, 0 to 100 scale, 0 is no effect, 100 is complete control
[22] = Rate 125 g/ha, 0 to 100 scale (0 no effect, 100 complete control)
[23] = Rate 500 g/ha, 0 to 100 scale where 0 is no effect and 100 is complete control
[24] = Rate 62 g/ha, Postemergence, scale 0 to 10, 0 no effect, 10 complete control

In the case of `CC(C)N(C(=O)n1oc(=O)n(C2CCCCCC2)c1=O)c1ccc(F)cc1` [Compound 340], the “Plant response rating, Corn” value (corn; [3]) is reported as 0, the “Corn plant response rating” value (corn; [4]) is reported as 0 and the “Corn plant response rating (0 to 10 scale)” value (corn; Preemergence, Rate 125 g/ha) is reported as 0. For the same molecule, the “Corn plant response rating” value (corn; [5]) was 0, the “Corn plant response rating” value (corn; [6]) was 0 and the “Corn plant response rating” value (corn; [7]) was 0. The “Plant response rating, Corn” value (corn; [8]) was 0, the “Plant response rating, Rape” value (rape; [3]) was 2 and the “Rape plant response rating” value (rape; [4]) was 0. The “Rape plant response rating (0 to 10 scale)” value (rape; Preemergence, Rate 125 g/ha) was 0, the “Rape plant response rating” value (rape; [5]) was 0 and the “Rape plant response rating” value (rape; [6]) was 0. The “Rape plant response rating” value (rape; [7]) was 2, the “Plant response rating, Rape” value (rape; [8]) was 6 and the “Plant response rating, Sugarbeets” value (sugar beet; [3]) was 2. The “Sugarbeets plant response rating” value (sugar beet; [4]) was 0, the “Sugarbeets plant response rating (0 to 10 scale)” value (sugar beet; Preemergence, Rate 125 g/ha) was 0 and the “Sugarbeets plant response rating” value (sugar beet; [5]) was 0. The “Sugarbeets plant response rating” value (sugar beet; [6]) was 0, the “Sugarbeets plant response rating” value (sugar beet; [7]) was 0 and the “Plant response rating, Sugarbeets” value (sugar beet; [8]) was 6. For the same molecule, the “Ducksalad plant response rating” value (duck salad; [9]) was 0, the “Ducksalad plant response rating” value (duck salad; [10]) was 0 and the “Ducksalad plant response rating” value (duck salad; [11]) was 0. The “Ducksalad plant response rating” value (duck salad; [12]) was 5, the “Plant response rating, Wheat (winter)” value (winter wheat [1]; [13]) was 30 and the “Plant response rating, Wheat (winter)” value (winter wheat [1]; Rate 1000 g/ha, 0 to 100 scale where 0 is no effect and 100 is complete control) was 60. The “Plant response rating, Wheat (winter)” value (winter wheat [1]; [14]) was 55, the “Plant response rating, Blackgrass” value (blackgrass; Rate 250 g/ha, 0 to 100 scale) was 50 and the “Plant response rating, Blackgrass” value (blackgrass; [15]) was 60. The “Plant response rating, Blackgrass” value (blackgrass; [16]) was 85, the “Plant response rating, Green foxtail” value (green foxtail; Rate 250 g/ha, 0 to 100 scale) was 30 and the “Plant response rating, Green foxtail” value (green foxtail; [15]) was 60. For the same molecule, the “Plant response rating, Green foxtail” value (green foxtail; [16]) was 100, the “Plant response rating, I. Ryegrass” value (Italian ryegrass; Rate 250 g/ha, 0 to 100 scale) was 55 and the “Plant response rating, I. Ryegrass” value (Italian ryegrass; [15]) was 60. The “Plant response rating, I. Ryegrass” value (Italian ryegrass; [16]) was 65, the “Plant response rating, Wheat (winter)” value (winter wheat [2]; Rate 250 g/ha, 0 to 100 scale) was 40 and the “Plant response rating, Wheat (winter)” value (winter wheat [2]; [15]) was 50. The “Plant response rating, Wheat (winter)” value (winter wheat [2]; [16]) was 60, the “Plant response rating, Wild oat” value (wild oat; Rate 250 g/ha, 0 to 100 scale) was 50 and the “Plant response rating, Wild oat” value (wild oat; [15]) was 50. The “Plant response rating, Wild oat” value (wild oat; [16]) was 60, the “Plant response rating, Barley (winter)” value (winter barley; [17]) was 50 and the “Plant response rating, Barley (winter)” value (winter barley; [15]) was 40. The “Plant response rating, Barley (winter)” value (winter barley; [16]) was 50.
In the case of `CC(C)N(C(=O)n1oc(=O)n(CC(C)(C)C)c1=O)c1ccccc1` [Compound 276], the “Corn plant response rating” value (corn; [4]) is reported as 0, the “Corn plant response rating” value (corn; [5]) is reported as 0 and the “Plant response rating, Corn” value (corn; [6]) is reported as 0. For the same molecule, the “Corn plant response rating” value (corn; [7]) was 0, the “Corn plant response rating” value (corn; [18]) was 0 and the “Corn plant response rating” value (corn; [19]) was 0. For the same molecule, the “Plant response rating, Corn” value (corn; [20]) was 0, the “Corn plant response rating” value (corn; [8]) was 0 and the “Rape plant response rating” value (rape; [4]) was 0. The “Rape plant response rating” value (rape; [5]) was 1, the “Plant response rating, Rape” value (rape; [6]) was 10 and the “Rape plant response rating” value (rape; [18]) was 0. The “Rape plant response rating” value (rape; [19]) was 0, the “Plant response rating, Rape” value (rape; [20]) was 0 and the “Rape plant response rating” value (rape; [8]) was 0. For the same molecule, the “Sugarbeets plant response rating” value (sugar beet; [4]) was 0, the “Sugarbeets plant response rating” value (sugar beet; [5]) was 1 and the “Plant response rating, Sugarbeets” value (sugar beet; [6]) was 7. The “Sugarbeets plant response rating” value (sugar beet; [18]) was 0, the “Sugarbeets plant response rating” value (sugar beet; [19]) was 1 and the “Plant response rating, Sugarbeets” value (sugar beet; [20]) was 2. For the same molecule, the “Sugarbeets plant response rating” value (sugar beet; [8]) was 2, the “Ducksalad plant response rating” value (duck salad; [9]) was 0 and the “Ducksalad plant response rating” value (duck salad; [10]) was 0. The “Ducksalad plant response rating” value (duck salad; [11]) was 0, the “Ducksalad plant response rating” value (duck salad; [12]) was 0 and the “Plant response rating, Wheat (winter)” value (winter wheat [1]; [21]) was 10. The “Wheat (winter) plant response rating” value (winter wheat [1]; Rate 250 g/ha, 0 to 100 scale where 0 is no effect and 100 is complete control) was 10, the “Plant response rating, Wheat (winter)” value (winter wheat [1]; [14]) was 20 and the “Plant response rating, Blackgrass” value (blackgrass; [22]) was 30. For the same molecule, the “Blackgrass plant response rating (0 to 100 scale)” value (blackgrass; Rate 250 g/ha) was 50, the “Plant response rating, Blackgrass” value (blackgrass; [23]) was 50 and the “Plant response rating, Green foxtail” value (green foxtail; [22]) was 60. The “Green foxtail plant response rating (0 to 100 scale)” value (green foxtail; Rate 250 g/ha) was 100, the “Plant response rating, Green foxtail” value (green foxtail; [23]) was 98 and the “Plant response rating, I. Ryegrass” value (Italian ryegrass; [22]) was 30. The “I. Ryegrass plant response rating (0 to 100 scale)” value (Italian ryegrass; Rate 250 g/ha) was 60, the “Plant response rating, I. Ryegrass” value (Italian ryegrass; [23]) was 50 and the “Plant response rating, Wheat (winter)” value (winter wheat [2]; [22]) was 20. For the same molecule, the “Wheat (winter) plant response rating (0 to 100 scale)” value (winter wheat [2]; Rate 250 g/ha) was 30, the “Plant response rating, Wheat (winter)” value (winter wheat [2]; [23]) was 50 and the “Plant response rating, Wild oat” value (wild oat; [22]) was 50. For the same molecule, the “Wild oat plant response rating (0 to 100 scale)” value (wild oat; Rate 250 g/ha) was 60, the “Plant response rating, Wild oat” value (wild oat; [23]) was 60 and the “Plant response rating, Barley (winter)” value (winter barley; [22]) was 50. The “Barley (winter) plant response rating (0 to 100 scale)” value (winter barley; Rate 250 g/ha) was 30 and the “Plant response rating, Barley (winter)” value (winter barley; [23]) was 50.
For `CC(C)N(C(=O)n1oc(=O)n(C2CC2)c1=O)c1ccc(F)cc1F` [Compound 299], the “Corn plant response rating” value (corn; [4]) was 0, the “Corn plant response rating (0 to 10 scale)” value (corn; Preemergence, Rate 125 g/ha) was 0 and the “Corn plant response rating” value (corn; [5]) was 8. For the same molecule, the “Corn plant response rating” value (corn; [6]) was 8, the “Corn plant response rating” value (corn; [24]) was 0 and the “Corn plant response rating” value (corn; [18]) was 0. The “Plant response rating, Corn” value (corn; [20]) was 3, the “Corn plant response rating” value (corn; [8]) was 4 and the “Rape plant response rating” value (rape; [4]) was 1. For the same molecule, the “Rape plant response rating (0 to 10 scale)” value (rape; Preemergence, Rate 125 g/ha) was 8, the “Rape plant response rating” value (rape; [5]) was 10 and the “Rape plant response rating” value (rape; [6]) was 10. The “Rape plant response rating” value (rape; [24]) was 1, the “Rape plant response rating” value (rape; [18]) was 3 and the “Plant response rating, Rape” value (rape; [20]) was 7. The “Sugarbeets plant response rating” value (sugar beet; [4]) was 3, the “Sugarbeets plant response rating (0 to 10 scale)” value (sugar beet; Preemergence, Rate 125 g/ha) was 8 and the “Sugarbeets plant response rating” value (sugar beet; [5]) was 9. The “Sugarbeets plant response rating” value (sugar beet; [6]) was 10, the “Sugarbeets plant response rating” value (sugar beet; [24]) was 2 and the “Sugarbeets plant response rating” value (sugar beet; [18]) was 3. The “Plant response rating, Sugarbeets” value (sugar beet; [20]) was 4, the “Ducksalad plant response rating” value (duck salad; [9]) was 0 and the “Ducksalad plant response rating” value (duck salad; [10]) was 0. For the same molecule, the “Ducksalad plant response rating” value (duck salad; [11]) was 0, the “Ducksalad plant response rating” value (duck salad; [12]) was 0 and the “Plant response rating, Wheat (winter)” value (winter wheat [1]; [21]) was 60. For the same molecule, the “Plant response rating, Wheat (winter)” value (winter wheat [1]; [13]) was 70, the “Plant response rating, Blackgrass” value (blackgrass; [22]) was 60 and the “Plant response rating, Blackgrass” value (blackgrass; Rate 250 g/ha, 0 to 100 scale) was 100. The “Plant response rating, Green foxtail” value (green foxtail; [22]) was 100, the “Plant response rating, Green foxtail” value (green foxtail; Rate 250 g/ha, 0 to 100 scale) was 100 and the “Plant response rating, I. Ryegrass” value (Italian ryegrass; [22]) was 70. The “Plant response rating, I. Ryegrass” value (Italian ryegrass; Rate 250 g/ha, 0 to 100 scale) was 85, the “Plant response rating, Wheat (winter)” value (winter wheat [2]; [22]) was 50 and the “Plant response rating, Wheat (winter)” value (winter wheat [2]; Rate 250 g/ha, 0 to 100 scale) was 65. The “Plant response rating, Wild oat” value (wild oat; [22]) was 65, the “Plant response rating, Wild oat” value (wild oat; Rate 250 g/ha, 0 to 100 scale) was 70 and the “Plant response rating, Barley (winter)” value (winter barley; [22]) was 40. For the same molecule, the “Plant response rating, Barley (winter)” value (winter barley; [17]) was 50.
